Reference: US7737305B2, “Sulfonic acid polyol compound, polyurethane resin, polyurethane resin for magnetic recording medium, and magnetic recording medium” (FUJIFILM Corporation, priority 2007, dated 2010)

Legend:
[1] = Solubility test in cyclohexanone (residue after dissolution); assay type: physicochemical; conditions: 1 part by weight in 5 parts by weight of cyclohexanone, 40° C., 3 hours, ultrasonic waves, filtered
Description: (1-2) Solubility Test Method
1 part by weight of sulfonic acid (salt) diol compound was added to 5 parts by weight of cyclohexanone, and dissolution was carried out at 40° C. for 3 hours using ultrasonic waves. A solution thus obtained was filtered, and the presence/absence of a residue after dissolution was checked.

[2] = background statement; cited from earlier work

| Structure (SMILES) | presence/absence of a residue after dissolution [1] | solubility in organic solvents [2] |
| --- | --- | --- |
| O=S(=O)([O-])CCN(CCO)CCO.[Li+] | a residue was found |  |
| O=S(=O)([O-])CCN(CCO)CCO.[K+] | a residue was found |  |
| O=S(=O)([O-])CCN(CCO)CCO.[Na+] | a residue was found |  |
| O=S(=O)(O)CCN(CCO)CCO [N,N-bis(2-hydroxyethyl)-2-aminoethanesulfonic acid] | a residue was found | does not dissolve in organic solvents |
